Columns and labels:
[1] = assay type: physicochemical; details: for Ea: activation energy for decomposition in xylene; for log A / k (sec^-1) at 25° C. / t1/2 at 25° C.: decomposition in xylene
Protocol: Rates of dioxetane decomposition were monitored by the decay of chemiluminescence of aerated solutions. A cylindrical Pyrex vial equipped with magnet stir bar was filled with 3-4 mL of the reaction solvent, sealed with a Teflon-lined screw cap and placed in the thermostatted sample block of the chemiluminescence-measuring apparatus (Black Box). Temperature control was provided by an external circulating water bath. Appropriate values for the instrument gain and optical slit size were selected. […]. The vial was sealed with a Teflon-lined screw cap to prevent evaporation when high temperatures were used. Measurement of the signal was begun by opening the shutter. The chemiluminescent decay was generally recorded for at least three half-lives. Calculation of the first-order rate constant, k, from the In(Intensity) vs. time data was performed by a computer program utilizing a standard least-squares treatment. The correlation coefficient, r, was typically at least 0.999 and varied less than 5% between replicate samples. The observed rate was not measurably concentration dependent.
Activation parameters for decomposition of the dioxetanes were calculated from plots of In k vs. l/T (Arrhenius eq.) or In k/t vs. l/T (Eyring eq.) by a standard least-squares linear regression analysis.

[2] = 25° C.; cited from earlier work
[3] = system: Aryl esterase (carboxylic ester hydrolase) from porcine liver; assay: Enzymatic triggering of chemiluminescence with aryl esterase; assay type: biochemical; details: for effect of competing substrate on light intensity of dioxetane 2e reaction: 10 μL of […] added at maximum emission, pH 7.6 phosphate buffer, 37° C.
Protocol: A secondary stock solution of the acetate-protected dioxetane 2e was made by evaporating an aliquot of the methylene chloride stock equivalent to 10 micromoles of dioxetane and dissolving in 5.0 mL of 2-methoxyethanol to give a final concentration of 0.002M. […] Buffer solutions prepared in distilled water were 0.05M phosphate pH 7.6 and 8.0, 0.02M Tris (tris-hydroxymethylaminomethane maleate) pH 7.6, and pH 9.0 phosphate/borate buffer. Aryl esterase (also called carboxylic ester hydrolase (P-5221)) from porcine liver was purchased from Sigma Chemical Co. as a suspension of 11 mg of protein per mL in 3.2M (NH4)2 SO4 solution pH 8.0. Each mg of protein is equivalent to 260 Units, where 1 Unit is defined as the amount which will hydrolyze 1 micromole of ethyl butyrate in 1 minute at pH 8.0, 25° C. […] Injection of 1 μL of (0.26 units) of aryl esterase to the stirred solution caused a chemiluminescent signal to appear. The intensity reached a maximum at about 3 minutes and decayed over a 30 minute period.
3.) When distilled water was substituted for the Tris buffer, no chemiluminescence signal was observed, but on adding Tris buffer to this solution light emission similar to that above was produced. […] Addition of untreated enzyme preparation to this solution again produced light. […] The emission could be totally extinguished by addition of sufficient SDS. The decrease in light emission is not due to photophysical quenching of the excited state since thermal decomposition in the same solvent system at elevated temperatures results in readily detectable chemiluminescence.
This type of behavior explains the effect of the addition of the known esterase substrates α-naphthyl acetate and β-naphthyl acetate. […] A solution of 25 μL of the dioxetane stock (0.002M) in 3 mL of pH 7.6 phosphate buffer maintained at 37° C. was treated wtih 5μL of the enzyme to initiate the chemiluminescence. At the point of maximum emission 10 μL of 0.011M solution of either α- or β-naphthyl acetate were added.

[4] = 0.26 units aryl esterase, pH 7.6 Tris buffer, 25° C.

COC1(c2ccc3ccccc3c2)OOC12C1CC3CC(C1)CC2C3 (centres unmarked) [Dioxetane 2a, 4-Methoxy-4-(2-naphthyl)spiro[1,2-dioxetane-3,2'-adamantane]]
Ea [1]: 29.7 | log A [1]: 13.2 | k (sec^-1) at 25° C. [1]: 3.17e-09 s⁻¹ | t1/2 at 25° C. [1]: 6.9 yrs

Oc1ccc(C23OCCOC2(c2ccccc2)OO3)cc1 (centres unmarked) [deprotonated dioxetane (X=O^-)]
decomposition rate relative to the protonated form (X=OH) [2]: 5.7×10^6 times faster

CC(=O)Oc1ccc2ccccc2c1 [β-naphthyl acetate, reference compound]
effect of competing substrate on light intensity of dioxetane 2e reaction [3]: rapid decrease in light intensity was noted followed by restoration of the original intensity within less than one minute

COC1(c2ccc3cc(O[Si](C)(C)C(C)(C)C)ccc3c2)OOC12C1CC3CC(C1)CC2C3 (centres unmarked) [Dioxetane 2c]
Ea [1]: 27.0 | log A [1]: 11.7 | k (sec^-1) at 25° C. [1]: 8.72e-09 s⁻¹ | t1/2 at 25° C. [1]: 2.5 yrs

COC1(c2ccc3cc(O)ccc3c2)OOC12C1CC3CC(C1)CC2C3 (centres unmarked) [Dioxetane 2b, 4-(6-Hydroxy-2-naphthyl)-4-methoxyspiro[1,2-dioxetane-3,2'-adamantane]]
Ea [1]: 29.7 | log A [1]: 13.3 | k (sec^-1) at 25° C. [1]: 3.83e-09 s⁻¹ | t1/2 at 25° C. [1]: 5.7 yrs

CC(=O)Oc1cccc2ccccc12 [α-naphthyl acetate, reference compound]
effect of competing substrate on light intensity of dioxetane 2e reaction [3]: rapid decrease in light intensity was noted followed by restoration of the original intensity within less than one minute

CCCCCCCCCCCCOS(=O)(=O)[O-].[Na+] [sodium lauryl sulfate (SDS), sodium lauryl sulfate, reference compound]
effect of enzyme inhibitor on light emission ([3]; added at maximum emission, Tris buffer, 1.5 μL enzyme): irreversible decrease in the intensity

COC1(c2ccc3cc(OC(C)=O)ccc3c2)OOC12C1CC3CC(C1)CC2C3 (centres unmarked) [Dioxetane 2e, 4-(6-Acetoxy-2-naphthyl)-4-methoxyspiro[1,2-dioxetane-3,2' -adamantane]]
duration of thermal chemiluminescence ([1]; aliquot in 3 mL o-xylene at 95° C.): persisted for several hours | chemiluminescence signal without enzyme ([3]; 0.3 μmol in 3.0 mL pH 7.6 Tris buffer, 25° C., before enzyme): no chemiluminescence signal was detected | period of decay of chemiluminescence [3, 4]: 30 min | time to maximum chemiluminescence intensity [3, 4]: about 3 minutes

Source: patent US5386017A, “Alkenes for producing chemiluminescent 1, 2-dioxetane compounds” (priority 1990, dated 1995)
